Assay [1] addresses T1, recombinant human hAAC (human αA-crystallin) (Homo sapiens, UniProt P02489).
T1 sequence (P02489 1-173): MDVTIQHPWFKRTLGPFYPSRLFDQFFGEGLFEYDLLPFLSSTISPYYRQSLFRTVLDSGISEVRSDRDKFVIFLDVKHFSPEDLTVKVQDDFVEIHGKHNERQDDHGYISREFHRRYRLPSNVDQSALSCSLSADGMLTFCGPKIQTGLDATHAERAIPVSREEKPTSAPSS
The experiment in a line: Protection from Ca+2 and UVC induced aggregation of recombinant human alpha-A crystallin (absorbance / SDS-PAGE). It is filed as biochemical. As to conditions: for Gel: SDS-PAGE, unaggregated AAC after UVC, compounds tested at 500 μM; for EC50: concentration needed to prevent 50% of hAAC from forming HMW aggregates when exposed to UVC in presence of Ca+2, calculated using SDS-PAGE, read-out: EC50 Biochemical. How it is done:
FIG. 2A: SDS-PAGE showing the protection against UVC induced aggregation of human α-A-crystallin (hAAC) by disulfide and related SDMs. Shown are also efficacy of non-related SDMs. The compounds were tested at 500 μM concentration.
The potency of compounds to provide protection from Ca^+2 and UVC induced aggregation of alpha-A crystalline (ACC) was measured by monitoring the effect of Ca^+2 and UVC on recombinant human hAAC. hAAC forms HMW aggregates when exposed to UVC radiation in the presence of 10 mM Ca^+2. The aggregates lead to increased absorbance. Stock compound solutions (made in DMSO) were added to recombinant hAAC (100 ug/ml) at desired concentrations. The hAAC, with the added compound, was incubated at room temperature for 1 hour, followed by addition of 10 μl of 200 mM CaCl2) and further incubation for 5 minutes. Then, absorbance was recorded at 400 nm (T=0 Minute) followed by exposure to UVC (254 nm, 480 mJ/cm^2 per minute). Absorbance was measured again at 15 and 30 minutes. To control for compound related effects, assays were performed with or without AAC in triplicate. Percent protection or change in fold-decrease in aggregation were computed using the measured differences in absorbance. DMSO was used as control. EC50 values were calculated using the SDS-PAGE, which is defined as the concentration of SMD needed to prevent 50% of hAAC from forming HMW aggregates when exposed to UVC in presence of Ca^+2 [FIGS. 2A-2B].

The next assay deals with porcine lenses. The experiment in a line: Ex vivo lens culture: protection from UV-induced opacification. As to conditions: porcine lenses cultured ex vivo. The source says: To predict whether SMDs could prevent opacification in animal models and ultimately in human patients, we assessed their ability to protect intact lenses cultured ex vivo from UV-induced opacification. As fresh human lenses are difficult to obtain, porcine lenses were used for the ex vivo studies. Porcine lenses are easy to acquire (Sierra for Medical Science, Inc., Whittier, CA) and have been used previously in ex vivo models of Presbyopia. As predicted by our biochemical assays, SMDs prevents UV-induced opacification of porcine lenses ex vivo.

Structures are written as SMILES.

On to `O=C(O)c1nsnc1NCCSSCCNc1nsnc1C(=O)O` [Compound 42], for which the Gel result in assay [1] was “+ (″+″ score = >20% to 50% unaggregated AAC)”.

For the compound `CC(C)NS(=O)(=O)c1cccc(C(=O)O)c1` [Compound 24], the Ex-vivo result in the assay on porcine lenses is “++ (″++″ score = >50% unaggregated AAC)”. In addition, the Gel result in assay [1] is “+ (″+″ score = >20% to 50% unaggregated AAC)”.

As for `O=C(O)CCNS(=O)(=O)c1ccc(F)cc1` [Compound 23], the Gel entry in assay [1] is listed as “+ (″+″ score = >20% to 50% unaggregated AAC)”.

In the case of `O=C(O)Cc1ccc(S(=O)(=O)N2CCOCC2)s1` [Compound 30], the Gel entry in assay [1] is “++ (″++″ score = >50% unaggregated AAC)”.

For orientation: EC50 means the concentration at which the effect is half-maximal. On to `O=C(O)c1cc(SSc2ccc([N+](=O)[O-])c(C(=O)O)c2)ccc1[N+](=O)[O-]` [Compound 13], for which, in the assay with porcine lenses, the Ex-vivo entry is “++ (″++″ score = >50% unaggregated AAC)”. In assay [1], the Gel result is “++ (″++″ score = >50% unaggregated AAC)” and the EC50 is 191 µM.

As for `O=C(O)c1ccc(SSc2ccc(C(=O)O)cc2)cc1` [Compound 1], the Gel result in assay [1] is reported as “++ (″++″ score = >50% unaggregated AAC)”.

For `Nc1ccc(SSc2ccc(N)cc2)cc1` [Compound 2], the Gel result in assay [1] is given as “++ (″++″ score = >50% unaggregated AAC)”.

Turning to `O=C(CSSCC(=O)Nc1cccc2ccccc12)Nc1cccc2ccccc12` [Compound 48], the Gel result in assay [1] is reported as “+ (″+″ score = >20% to 50% unaggregated AAC)”.

In the case of `CCCNS(=O)(=O)c1cccc(C(C)=O)c1` [Compound 22], the Gel entry in assay [1] is given as “+ (″+″ score = >20% to 50% unaggregated AAC)”.

On to `Cc1cc(N2CCSSCC2)ncc1[N+](=O)[O-]` [Compound 34], for which the Gel result in assay [1] is given as “++ (″++″ score = >50% unaggregated AAC)”.

`O=C1NC(=O)c2cc(NC(=O)N3CCSSCC3)ccc21` [Compound 37]: in assay [1], the Gel result was “++ (″++″ score = >50% unaggregated AAC)” and the EC50 is 370 µM.

Regarding `Cc1ccnc(N2CCSSCC2)c1[N+](=O)[O-]` [Compound 35], the Gel result in assay [1] is reported as “++ (″++″ score = >50% unaggregated AAC)”.

As for `O=C(O)c1cccc(S(=O)(=O)N2CCCCC2)c1` [Compound 28], in assay [1], the Gel entry is listed as “+ (″+″ score = >20% to 50% unaggregated AAC)”.

`COc1ccccc1NC(=O)CSSCC(=O)Nc1ccccc1OC` [Compound 55]: the Gel result in assay [1] is on record as “++ (″++″ score = >50% unaggregated AAC)”.

With `O=C(CSSCC(=O)Nc1ccc2ccccc2c1)Nc1ccc2ccccc2c1` [Compound 44], the Gel result in assay [1] was “++ (″++″ score = >50% unaggregated AAC)”.

As for `O=C(O)c1ccccc1SSc1ccccc1C(=O)O` [Compound 4], in assay [1], the Gel entry is given as “++ (″++″ score = >50% unaggregated AAC)” and the concentration giving a half-maximal response (EC50) is 395 µM.

`O=C(NCCOc1ccccc1)SSC(=O)NCCOc1ccccc1` [Compound 45]: in assay [1], the Gel entry is reported as “+ (″+″ score = >20% to 50% unaggregated AAC)”.

As for `N#Cc1cc(C(=O)O)c(O)nc1SSc1nc(O)c(C(=O)O)cc1C#N` [Compound 50], the Gel result in assay [1] is “+ (″+″ score = >20% to 50% unaggregated AAC)”.

`CC(C)Cc1ccccc1NC(=O)CSSCC(=O)Nc1ccccc1CC(C)C` [Compound 51]: in assay [1], the Gel entry is “++ (″++″ score = >50% unaggregated AAC)”.

With `O=C(O)c1cccc(S(=O)(=O)N2CCOCC2)c1` [Compound 29], the Gel result in assay [1] is “+ (″+″ score = >20% to 50% unaggregated AAC)”.

For the compound `Cc1ccc(NC(=O)C(C)SSC(C)C(=O)Nc2ccc(C)c(F)c2)cc1F` (centres unmarked) [Compound 41], the Gel entry in assay [1] was “+ (″+″ score = >20% to 50% unaggregated AAC)”.

In the case of `CN=C(NC#N)NCCSCc1csc(N=C(C)C)n1` [Compound 32], in assay [1], the Gel entry is on record as “++ (″++″ score = >50% unaggregated AAC)” and the EC50 is 410 µM.

In the case of `O=C(O)c1ccc(S(=O)(=O)N2CCCCC2)cc1` [Compound 27], the Gel result in assay [1] is “+ (″+″ score = >20% to 50% unaggregated AAC)”.

On to `O=C(CSSCC(=O)Nc1cccc([N+](=O)[O-])c1)Nc1cccc([N+](=O)[O-])c1` [Compound 40], for which, in assay [1], the Gel entry is listed as “+ (″+″ score = >20% to 50% unaggregated AAC)” and the EC50 is 365 µM.

For the compound `O=C(O)c1cc(S(=O)(=O)N2CCCC2)ccc1O` [Compound 26], in assay [1], the Gel entry is “++ (″++″ score = >50% unaggregated AAC)”.

For `COC(=O)c1ccccc1SSc1ccccc1C(=O)OC` [Compound 21], in assay [1], the Gel result is on record as “+ (″+″ score = >20% to 50% unaggregated AAC)”.

`O=C(O)CCC(=O)Nc1ccc(SSc2ccc(NC(=O)CCC(=O)O)cc2)cc1` [Compound 43]: in assay [1], the Gel result was “++ (″++″ score = >50% unaggregated AAC)”.

With `Cc1nn(CCC(=O)N2CCSSCC2)c(C)c1[N+](=O)[O-]` [Compound 38], the Gel entry in assay [1] was “+ (″+″ score = >20% to 50% unaggregated AAC)”.

As for `CC(=O)Nc1ccc(SSc2ccc(NC(C)=O)cc2)cc1` [Compound 16], in assay [1], the Gel entry is recorded as “+ (″+″ score = >20% to 50% unaggregated AAC)”.

Turning to `Nc1nc(N2CCSSCC2)ncc1[N+](=O)[O-]` [Compound 36], in assay [1], the Gel entry is “+ (″+″ score = >20% to 50% unaggregated AAC)”.

`O=C(O)c1cccc(S(=O)(=O)NC2CC2)c1` [Compound 25]: the Ex-vivo result with porcine lenses is listed as “++ (″++″ score = >50% unaggregated AAC)”. The Gel entry in assay [1] is “+ (″+″ score = >20% to 50% unaggregated AAC)”.

`CNC(C[N+](=O)[O-])NCCSCc1ccc(CN(C)C)o1.Cl` (centres unmarked) [Compound 31]: the Gel entry in assay [1] is “+ (″+″ score = >20% to 50% unaggregated AAC)”.

As to `Cc1ncc(CSSCc2cnc(C)c(O)c2CO)c(CO)c1O` [Compound 46], in assay [1], the Gel entry is reported as “+ (″+″ score = >20% to 50% unaggregated AAC)”.

Consider `O=[N+]([O-])c1cc(C(F)(F)F)ccc1SSc1ccc(C(F)(F)F)cc1[N+](=O)[O-]` [Compound 14], for which the Gel result in assay [1] is recorded as “+ (″+″ score = >20% to 50% unaggregated AAC)”.

`CCC1c2ccccc2-c2cc(NC(=O)CSSCC(=O)Nc3ccc4c(c3)c3ccccc3n4CC)ccc21` (centres unmarked) [Compound 54]: in assay [1], the Gel result is recorded as “++ (″++″ score = >50% unaggregated AAC)”.

Turning to `Nc1cccc(SSc2cccc(N)c2)c1` [Compound 5], in assay [1], the Gel result is listed as “++ (″++″ score = >50% unaggregated AAC)”.

For the compound `COc1ccc(SSc2ccc(OC)cc2)cc1` [Compound 15], the Gel entry in assay [1] was “+ (″+″ score = >20% to 50% unaggregated AAC)”.

For `Fc1ccccc1SSc1ccccc1F` [Compound 7], in assay [1], the Gel entry was “+ (″+″ score = >20% to 50% unaggregated AAC)”.

Regarding `O=[N+]([O-])c1cc(S(=O)(=O)C(F)(F)C(F)(F)F)ccc1SSc1ccc(S(=O)(=O)C(F)(F)C(F)(F)F)cc1[N+](=O)[O-]` [Compound 18], in assay [1], the Gel entry is “+ (″+″ score = >20% to 50% unaggregated AAC)”.

Consider `CN/C(=C\[N+](=O)[O-])NCCSCc1c[nH]c(CN(C)C)n1` [Compound 11], for which the Ex-vivo entry with porcine lenses is “++ (″++″ score = >50% unaggregated AAC)”. Moreover, in assay [1], the Gel result is “++ (″++″ score = >50% unaggregated AAC)” and the concentration giving a half-maximal response (EC50) was 495 µM.
